Data as given in article PMC12263571, “Antiviral effects of mogroside V against porcine reproductive and respiratory syndrome virus in vitro” (Frontiers in Microbiology, 2025).
Where two headings read alike, the source gives them in different places.

Assays:
Marc-145 cells = assay: CCK-8 cytotoxicity assay in Marc-145 cells; type: cell-based
Protocol: (§1) The cytotoxicity of MV was assessed using the Cell Counting Kit-8 (CCK-8) assay to determine cell viability. Porcine alveolar macrophages (PAMs) and Marc-145 cells were seeded in 96-well plates and treated with varying concentrations of MV (0, 100, 200, 400 or 800 μM) for 24, 48, 72, and 96 h. Following the manufacturer's protocol, CCK-8 reagent was added to each well, and cells were incubated for 2 h at 37°C under 5% CO2. Absorbance was measured at 450 nm using a microplate reader. Cell viability (%) was calculated using the formula:Cell viability (%) = [OD (sample) – OD (blank)/OD (control) – OD (blank)] × 100%, where OD (blank) represents the background absorbance of cell-free medium, and OD (control) denotes untreated cells.
(§2) The half-maximal inhibitory concentration (IC50) value for MV-mediated cytotoxicity was calculated through nonlinear regression fitting of dose-response curves.

[1] = tested on: Porcine alveolar macrophages (PAMs); assay: CCK-8 cytotoxicity assay in PAM cells; type: cell-based
Protocol: as §1, §2

HP-PRRSV-GFP = assay: Antiviral assay (TCID50, RT-qPCR, IFA) against HP-PRRSV-GFP strain in Marc-145 and PAM cells; type: cell-based, porcine reproductive and respiratory syndrome virus
Protocol: (§3) To investigate the stage-specific antiviral effects of mogroside V (MV) and evaluate its ability to inhibit PRRSV replication in Marc-145 and PAM cells, three distinct treatment groups were established for in vitro evaluation: pre-treatment group, post-treatment group, and co-treatment group. Viral replication was assessed through multiple approaches: quantification of viral mRNA copies by RT-qPCR, determination of viral titers using the TCID50 method, and analysis of PRRSV N protein expression via immunofluorescence assay (IFA). The experimental design was as follows:
(§4) Pre-treatment group: to investigate the preventive effect of MV prior to PRRSV infection, Marc-145 or PAM cells were pretreated with MV before viral challenge. Cells in good growth condition were seeded in 6-well plates and cultured until monolayer formation. After removing the old medium, cells were washed twice with PBS, followed by incubation with varying concentrations of MV for 24 h. The drug was then removed, and cells were washed twice with PBS before infection with PRRSV (100 TCID50) for 48 h. Subsequently, viral mRNA copies, viral titers, and PRRSV N protein fluorescence expression were measured to calculate viral inhibition rates.
(§5) Post-treatment group: In order to investigate the effect of MV on PRRSV infection, MV was added after Marc-145 or PAM cells were infected with PRRSV. The cells with good growth status were inoculated in the 6-well cell culture plate. After the cells grew to monolayer, the old medium was discarded and the cells were cleaned twice with PBS. PRRSV (100 TCID50) was inoculated and incubated for 1 h, during which the virus could be shaken repeatedly to fully interact with cells. The virus venom was removed, washed twice with PBS, and incubated with different concentrations of MV for 48 h. After that, the viral mRNA copies and viral titer were detected, the viral inhibition rate was calculated, and the fluorescence expression of PRRSV N protein was observed.
(§6) Co-treatment group: In order to study the direct effect of MV on PRRSV, PRRSV and MV were simultaneously inoculated in Marc-145 or PAM cells for treatment. The cells with good growth status were inoculated in the 6-well cell culture plate. After the cells grew to monolayer, the old medium was discarded and the cells were cleaned twice with PBS. MV at different concentrations was mixed with PRRSV (100 TCID50) and inoculated into Marc-145 and PAM cells for 48 h. After that, the viral mRNA copies and viral titer were detected, viral inhibition rate was calculated, and the fluorescence expression of PRRSV N protein was observed.
(§7) Real-time quantitative PCR (RT-qPCR) was performed to determine PRRSV gene expression levels. Viral RNA was extracted from cell culture supernatants using a commercial viral DNA/RNA extraction kit according to the manufacturer's protocol, with subsequent storage at −80°C until further analysis. RT-qPCR amplification were conducted using TransScript Green One-Step qRT-PCR SuperMix kit.
(§8) The supernatant from 6-well culture plates was collected into 1.5 mL microcentrifuge tubes and stored at −80°C for subsequent analysis. Cells were washed twice with PBS and fixed with ice-cold methanol for 15 min at room temperature. Non-specific binding sites were blocked with 1% BSA containing 0.05% Tween 20 for 30 min at ambient temperature. Cells were then incubated with anti-PRRSV N protein monoclonal antibody either for 2 h at 37°C or overnight at 4°C. Following primary antibody incubation, cells were treated with fluorophore-conjugated secondary antibody (goat anti-mouse IgG, Alexa Fluor 488) for 1 h at 37°C. Nuclei were counterstained with DAPI for 10 min at room temperature protected from light. Fluorescence microscopy was performed to examine the subcellular distribution and expression levels of PRRSV N protein. Stained cell monolayers were visualized under 4 × , 10 × , and 20 × objective lenses using an epifluorescence microscope. […]

NADC30 strain = assay: Antiviral assay (TCID50, RT-qPCR, IFA) against NADC30 strain in Marc-145 and PAM cells; type: cell-based, porcine reproductive and respiratory syndrome virus; details: for viral titers: co-treatment; for PRRSV N protein expression (IFA): PAMs, pre-treatment
Protocol: as §3, §4, §5, §6, §7, §8

PRRSV = assay: Antiviral assay against PRRSV, both strains (HP-PRRSV-GFP and NADC30) taken together; type: cell-based, porcine reproductive and respiratory syndrome virus
Protocol: as §3, §4, §5, §6, §7, §8

[2] = tested on: immunomodulatory cytokines gene expression in PAMs; assay: RT-qPCR of immunoregulatory factor gene expression in PAMs; type: cell-based, porcine
[3] = Marc-145 and PAM cells, 400 μM MV
[4] = Marc-145 and PAM cells, MV ≤ 200 μM
[5] = pre-treatment, 400 μM MV, both cell types, vs untreated controls, P < 0.01

With `C[C@H](CC[C@@H](O[C@@H]1O[C@H](CO[C@@H]2O[C@H](CO)[C@@H](O)[C@H](O)[C@H]2O)[C@@H](O)[C@H](O)[C@H]1O[C@@H]1O[C@H](CO)[C@@H](O)[C@H](O)[C@H]1O)C(C)(C)O)[C@H]1CC[C@@]2(C)[C@@H]3CC=C4[C@@H](CC[C@H](O[C@@H]5O[C@H](CO[C@@H]6O[C@H](CO)[C@@H](O)[C@H](O)[C@H]6O)[C@@H](O)[C@H](O)[C@H]5O)C4(C)C)[C@]3(C)[C@H](O)C[C@]12C` [MV, Mogroside V] the cell viability (Marc-145 cells; Marc-145 cells, 400 μM MV) was “exceeded 75%”, the IC50 (Marc-145 cells; Marc-145 cells, 24 h) was 686 µM and the IC50 (Marc-145 cells; Marc-145 cells, 48 h) was 756 µM. The IC50 (Marc-145 cells; Marc-145 cells, 72 h) was 756 µM, the IC50 (Marc-145 cells; Marc-145 cells, 96 h) was 760 µM and the “maximum safe drug concentration” value (Marc-145 cells; PAM and Marc-145 cells) was 400 µM. The cell viability ([1]; PAM cells, 400 μM MV) was “exceeded 75%”, the IC50 ([1]; PAM cells, 24 h, read-out: IC50 (cytotoxicity)) was 577 µM and the IC50 ([1]; PAM cells, 48 h, read-out: IC50 (cytotoxicity)) was 599 µM. For the same compound, the IC50 ([1]; PAM cells, 72 h, read-out: IC50 (cytotoxicity)) was 704 µM, the IC50 ([1]; PAM cells, 96 h, read-out: IC50 (cytotoxicity)) was 582 µM and the IC50 ([1]; all IC50 values, Marc-145 and PAM cells, 24-96 h, read-out: IC50 values, all) was no less than 577 µM. For the same compound, the “increase in mRNA inhibition, 400 μM vs 200 μM” value (HP-PRRSV-GFP; Marc-145 and PAM cells) was 53 percentage-point, the “increase in viral titer inhibition, 400 μM vs 200 μM” value (HP-PRRSV-GFP; Marc-145 and PAM cells) was 52 percentage-point and the “average mRNA inhibition rate” value (HP-PRRSV-GFP; [3]) was “exceeding 95%”. The “average viral titer inhibition rate” value (HP-PRRSV-GFP; [3]) was “exceeding 95%”, the “average mRNA inhibition rate” value (HP-PRRSV-GFP; [4]) was “below 42%” and the “average viral titer inhibition rate” value (HP-PRRSV-GFP; [4]) was “below 43%”. The viral titers (HP-PRRSV-GFP; Marc-145 cells, co-treatment, 400 μM MV) was “below the detection threshold”, the viral titers (HP-PRRSV-GFP; PAM cells, co-treatment, 400 μM MV) was “below the detection threshold” and the “viral mRNA copies” value (HP-PRRSV-GFP; PAMs, pre-treatment, 200 μM MV, P < 0.05) was “significantly suppressed”. The viral titers (HP-PRRSV-GFP; PAMs, pre-treatment, 200 μM MV, P > 0.05) was “no significant reduction”, the “enhancement in mRNA inhibition, 400 μM vs 200 μM” value (NADC30 strain; Marc-145 and PAM cells) was 49 percentage-point and the “improvement in viral titer inhibition, 400 μM vs 200 μM” value (NADC30 strain; Marc-145 and PAM cells) was 43 percentage-point. For the same compound, the “average mRNA inhibition rate” value (NADC30 strain; [3]) was greater than 94%, the “average viral titer inhibition rate” value (NADC30 strain; [3]) was greater than 98% and the “average mRNA inhibition rate” value (NADC30 strain; [4]) was “below 45%”. For the same compound, the “average viral titer inhibition rate” value (NADC30 strain; [4]) was “below 55%”, the viral titers (NADC30 strain; Marc-145 cells, 400 μM MV) was “below the detection threshold” and the viral titers (NADC30 strain; PAM cells, 400 μM MV (CPE in only two replicate wells)) was “approached the lower detection limit”. The “PRRSV N protein expression (IFA)” value (NADC30 strain; 400 μM MV, P < 0.01) was “significantly reduced”, the “PRRSV N protein expression (IFA)” value (NADC30 strain; 100 and 200 μM MV) was “no statistically significant effects” and the “inhibition rate for viral titers” value (PRRSV; 200 μM MV, Marc-145 and PAM cells, mean values across all treatment groups) was 43%. The “maximal inhibition of viral titers” value (PRRSV; 400 μM MV) was “up to 100%”, the “greater suppression of viral mRNA, high- vs low-concentration group” value (PRRSV; 400 μM vs 200 μM MV) was 51% and the “viral fluorescence intensity (IFA)” value (PRRSV; Marc-145 cells, pre-treatment, 400 μM MV, P < 0.01) was “markedly diminished”. The “PRRSV N protein expression (IFA)” value (PRRSV; Marc-145 or PAM cells, 400 μM MV, post-infection and co-treatment regimens) was “no detectable PRRSV N protein expression”, the “viral replication in cells” value (PRRSV; co-treatment, 400 μM MV, P < 0.01) was “markedly suppressed” and the viral titers (PRRSV; post-treatment (1 h post-infection), 400 μM MV, Marc-145 and PAM cells) was “undetectable levels”. The “viral mRNA copies” value (PRRSV; post-treatment (1 h post-infection), 400 μM MV, Marc-145 and PAM cells, P < 0.01) was “significantly reduced”, the “PRRSV mRNA levels” value (PRRSV; [5]) was “significantly reduced” and the viral titers (PRRSV; [5]) was “significantly reduced”. For the same compound, the “pro-inflammatory cytokine storm, such as excessive TNF-α secretion” value [2] was “no evidence of a pro-inflammatory cytokine storm”, the IL-1 gene expression ([2]; RT-qPCR) was “significantly upregulates” and the IL-1β gene expression ([2]; RT-qPCR) was “significantly upregulates”. For the same compound, the IL-2 gene expression ([2]; RT-qPCR) was “significantly upregulates”, the IL-8 gene expression ([2]; RT-qPCR) was “significantly upregulates” and the IL-18 gene expression ([2]; RT-qPCR) was “significantly upregulates”.
